Data set [1] deals with B. subtilis 168. Put plainly: Selection for resistant strains, stepwise two-fold increased concentration. Format: cell-based, Bacillus subtilis. Conditions: 24 h cultures, two-fold increased concentration each transfer; rifampicin from 0.01 mg/L, DR5026 from 0.5 mg/L. The protocol:
A) B. subtilis. […] Then, the growth of the culture was evaluated by OD600nm and an aliquot of the culture was transferred to a new tube with fresh medium and a two-fold increased concentration of the active compound. This template was followed until no growth was detected for DR5026 or until B. subtilis grew at 5 mg/L of rifampicin.

For data set [2], the system named is Bacillus subtilis. Put plainly: MIC, standard microdilution method.
For data set [3] the following is noted: comparable conditions, 1 M salt solution, cited from earlier work.
The test system of data set [4] is Mouse macrophages J774A.1. Put plainly: Membrane permeabilization assay (propidium iodide uptake). Format: cell-based. Conditions: LPPOs 10 mg/L, melittin 10 μM. The protocol:
Mouse macrophages J774A.1 (ATCC, number TIB-67) were cultured at 37°C in a humidified air/CO2 (19:1) atmosphere in RPMI medium supplemented with 10% (v/v) heat-inactivated fetal bovine serum, penicillin (100 IU/ml), streptomycin (100 mg/L), and amphotericin B (250 μg/L). For fluorescence measurements, cells were mechanically harvested, seeded on glass coverslips in 6-well plates, and grown to 30% confluence (about 2x10^5 cells). Cells grown on coverslips were washed in modified HBSS solution (140 mM NaCl, 5 mM KCl, 2 mM CaCl2, 3 mM MgCl2, 10 mM HEPES-Na, 50 mM glucose, pH 7.4) and promptly mounted into custom-made polypropylene holder which was placed horizontally into a quartz cuvette filled with HBSS containing 10 μM PI. The uptake of PI was observed as fluorescence increase using identical setting as with bacterial cells (see above). The observed area of the coverslip was about 10 mm^2, corresponding to approximately 10^4 cells.

Values after ≈ are worked out from the molar mass of the structure shown. Where two headings read alike, the source gives them in different places.

`CO[C@H]1/C=C/O[C@@]2(C)Oc3c(C)c(O)c4c(O)c(c(/C=N/N5CCN(C)CC5)c(O)c4c3C2=O)NC(=O)/C(C)=C\C=C\[C@H](C)[C@H](O)[C@@H](C)[C@@H](O)[C@@H](C)[C@H](OC(C)=O)[C@@H]1C` [rifampicin, reference compound]: the development of resistance entry in data set [1] is reported as “able to obtain cells growing in the presence of 5 mg/L of rifampicin”. For the same molecule, the “MIC against wt B. subtilis” value in data set [2] (B. subtilis 168, as stated for the resistance selection experiment) is 0.06 µg/mL (≈ 0.0729 µM). Further, in data set [2] (Bacillus subtilis, read-out: MIC against wt B. subtilis, B. subtilis 168, as stated for the resistance selection experiment), the MIC (commonly the lowest concentration found to suppress growth) was around 0.06 µg/mL (≈ 0.0729 µM).
Turning to alamethicin, the channel conductance entry in data set [3] (no reference given) was “ca. 600 pS”.
For gramicidin A, the channel conductance result in data set [3] is given as “ca. 20 pS”.
For melittin, the “effect on cytoplasmic membrane permeability (PI uptake)” value in data set [4] is listed as “did so”.

(Values after article PMC4696656, “Insights into the Mechanism of Action of Bactericidal Lipophosphonoxins” (PLoS ONE, 2015).)
